Measured values taken from patent publication US20190241569A1, “3-(ARYL OR HETEROARYL) METHYLENEINDOLIN-2-ONE DERIVATIVES AS INHIBITORS OF CANCER STEM CELL PATHWAY KINASES FOR THE TREATMENT OF CANCER” (Boston Biomedical, Inc., priority 2013, published 2019).
pIC50: −log10 of the molar value.

Experiments:
human RIOK2 protein = target: T1, human RIOK2 protein (Homo sapiens, UniProt Q9BVS4); experiment: RIOK2 autophosphorylation ELISA (Test Example 4); type: biochemical; conditions: for inhibition at 1 µM: read-out: Inhibitory activity at 1 μM (%); for inhibition at 10 µM: read-out: Inhibitory activity at 10 μM (%)
T1 construct: glutathione S-transferase is fused to N-terminal of a full-length human RIOK2 protein; GST (glutathione S-transferase) (N); purchased CarnaBio, Inc; host or cells: baculovirus-Sf21 cell expression system
Protocol: A protein in which glutathione S-transferase is fused to N-terminal of a full-length human RIOK2 protein was used as a recombinant human RIOK2 protein. The protein was prepared using a baculovirus-Sf21 cell expression system from CarnaBio, Inc. A kinase reaction solution was prepared by mixing 25 μg/mL of the recombinant human RIOK2 protein and 100 μM of ATP in 20 μl of kinase reaction buffer (50 mM Tris-HCl, 10 mM MgCl2, 10 mM MnCl2, 1 mM DTT, 0.01% Brij, 1× PhosSTOP (manufactured by Roche Applied Science)), and was incubated at a temperature of 30° C. for 1 hour. After adding 30 μl of 40 mM EDTA solution to this kinase reaction solution, the kinase reaction solution was transferred to a MaxiSorp 96 well plate (manufactured by Nunc). Thereafter, phosphorylated human RIOK2 protein was allowed to adsorb onto the wells by leaving the plate in a refrigerator overnight.
The following day, the supernatant was removed, and the wells were washed three times with ELISA buffer (20 mM Tris-HCl, 150 mM NaCl, 0.2% Tween-20, 0.1% BSA). Thereafter, 100 μl of Blocking-One P (product name; manufactured by Nacalai Tesque, Inc.) was applied to the wells, and a blocking treatment was performed for 1 hour at room temperature. […] After further washing the wells, a secondary antibody, anti-rabbit IgG conjugated with horseradish peroxidase (manufactured by Jackson ImmunoResearch; 1/4000 ELISA buffer-diluted solution), was applied to the wells, and incubation was performed for 30 minutes at room temperature. After washing the wells once again, 50 μl of tetramethyl benzidine (TMB) aqueous solution (manufactured by Nacalai Tesque, Inc.) was applied to the wells, and a coloring reaction was performed for 30 minutes at room temperature. Thereafter, the coloring reaction was stopped by adding 50 μl of 2M H2SO4 to the wells. An absorptiometric level of 450 nm was measured in each well using ARVO SX (manufactured by Wallac).

ACHN CSC = experiment: Cancer stem cells, Cell Titer-Glo 72 hours (Test Example 3); type: cell-based; conditions: Homo sapiens, ACHN, 72 h
FaDu CSC = experiment: as above; type: cell-based; conditions: Homo sapiens, FaDu, 72 h
FaDu = experiment: Bulk cancer cells, Cell Titer-Glo 72 hours (Test Example 2); type: cell-based; conditions: Homo sapiens
Protocol: (§1) Tubes of 3× drug (60 uM in 500 uL complete media) were prepared from 5 mM stock solutions in DMSO. […] To treat cells, 50 uL of drug from the dilution plate was removed and added to the cell plates. […] Cells were harvested 72 hours after drug addition using Cell Titer-Glo (Promega) and luminescence measured on a plate reader.

A549 = experiment: as above; type: cell-based; conditions: Homo sapiens
Protocol: as §1

ACHN = experiment: as above; type: cell-based; conditions: Homo sapiens, ACHN, 72 h
Protocol: as §1

A549 CSC = experiment: Cancer stem cells, Cell Titer-Glo 72 hours (Test Example 3); type: cell-based; conditions: Homo sapiens

T1 sequence (Q9BVS4 whole entry, the tested form may be a part): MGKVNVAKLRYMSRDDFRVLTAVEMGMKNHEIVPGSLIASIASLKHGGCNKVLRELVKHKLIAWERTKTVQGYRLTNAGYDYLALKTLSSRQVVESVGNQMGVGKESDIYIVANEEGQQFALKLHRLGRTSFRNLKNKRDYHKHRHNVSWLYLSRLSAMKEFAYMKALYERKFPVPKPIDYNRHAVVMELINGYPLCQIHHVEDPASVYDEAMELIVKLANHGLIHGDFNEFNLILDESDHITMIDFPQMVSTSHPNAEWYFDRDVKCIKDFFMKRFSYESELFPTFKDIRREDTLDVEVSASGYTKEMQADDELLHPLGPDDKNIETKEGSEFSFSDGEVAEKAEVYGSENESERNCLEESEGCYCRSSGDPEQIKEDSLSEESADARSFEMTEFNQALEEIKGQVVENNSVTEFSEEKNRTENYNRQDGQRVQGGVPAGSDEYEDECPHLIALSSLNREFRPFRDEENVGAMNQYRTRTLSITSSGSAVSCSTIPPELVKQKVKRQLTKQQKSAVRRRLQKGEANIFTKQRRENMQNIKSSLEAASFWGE

Row | Structure (SMILES) | inhibition at 1 µM (human RIOK2 protein) [%] | inhibition at 10 µM (human RIOK2 protein) [%] | pIC50 (ACHN CSC) | pIC50 (FaDu CSC) | pIC50 (FaDu) | pIC50 (A549) | pIC50 (ACHN) | pIC50 (A549 CSC)
1 | CCN(CC)CCNC(=O)c1c(C)[nH]c(/C=C2\C(=O)Nc3ccc(-c4ccnn4-c4ccc(Cl)c(Cl)c4)cc32)c1C [Example 65] | 18 | 87 |  |  |  |  |  | 
2 | CCN(CC)CCNC(=O)c1c(C)[nH]c(/C=C2\C(=O)Nc3ccc(-c4ccnn4-c4ccncc4)cc32)c1C [Example 66] | -6 | 44 |  |  |  |  |  | 
3 | CCN(CC)CCNC(=O)c1c(C)[nH]c(/C=C2\C(=O)Nc3ccc(-c4ccnn4-c4cccc(C)c4)cc32)c1C [Example 61] | 29 | 137 |  |  |  |  |  | 
4 | CCN(CC)CCNC(=O)c1c(C)[nH]c(/C=C2\C(=O)Nc3ccc(-c4ccnn4-c4cccc(OC)c4)cc32)c1C [Example 62] | 51 | 98 |  |  |  |  |  | 
5 | CCN(CC)CCNC(=O)c1c(C)[nH]c(/C=C2\C(=O)Nc3ccc(-c4ccnn4-c4ccc(OC)cc4)cc32)c1C [Example 59] | 34 | 106 |  |  |  |  |  | 
6 | CCN(CC)CCNC(=O)c1c(C)[nH]c(/C=C2\C(=O)Nc3ccc(-c4ccnn4-c4ccc(F)cc4)cc32)c1C [Example 57] | 39 | 104 |  |  |  |  |  | 
7 | CCN(CC)CCNC(=O)c1c(C)[nH]c(/C=C2\C(=O)Nc3ccc(-c4ccnn4-c4ccccc4F)cc32)c1C [Example 58] | 56 | 116 |  |  |  |  |  | 
8 | CCN(CC)CCNC(=O)c1c(C)[nH]c(/C=C2\C(=O)Nc3ccc(-c4cnn(-c5cnccn5)c4)cc32)c1C [Example 68] | 47 | 95 |  |  |  |  |  | 
9 | CCN(CC)CCNC(=O)c1c(C)[nH]c(/C=C2\C(=O)Nc3ccc(-c4ccnn4-c4ccc(C(F)(F)F)cc4)cc32)c1C [Example 60] | 9 | 68 |  |  |  |  |  | 
10 | CCN(CC)CCNC(=O)c1c(C)[nH]c(/C=C2\C(=O)Nc3ccc(-c4nc5ccccc5s4)cc32)c1C [Example 191] |  |  | 6.01 | 5.22 | 5.31 | 5.43 | 5.02 | 5.38
11 | CCN(CC)CCNC(=O)c1c(C)[nH]c(/C=C2\C(=O)Nc3ccc(-c4cccc(OC)n4)cc32)c1C [Example 190] |  |  | 6.62 | 6.72 | 5.75 | 5.55 | 5.71 | 5.65
12 | CCN(CC)CCNC(=O)c1c(C)[nH]c(/C=C2\C(=O)Nc3ccc(-c4cnc5cn[nH]c5c4)cc32)c1C [Example 181] |  |  | 4.97 | 6.80 | 5.83 | 5.49 | 5.56 | 4.58
13 | CCN(CC)CCNC(=O)c1c(C)[nH]c(/C=C2\C(=O)Nc3ccc(-c4ccc(OC)cc4C)cc32)c1C [Example 267] |  |  | 5.85 | 5.85 | 5.64 | 5.76 | 5.65 | 5.34
14 | CCN(CC)CCNC(=O)c1c(C)[nH]c(/C=C2\C(=O)Nc3ccc(-c4cscc4C)cc32)c1C [Example 206] |  |  | 6.32 | 5.04 | 5.43 | 5.70 | 5.57 | 5.40
15 | CCN(CC)CCNC(=O)c1c(C)[nH]c(/C=C2\C(=O)Nc3ccc(-c4ccc(C=O)cc4)cc32)c1C [Example 266] |  |  | 5.36 | 5.12 | 4.92 | 4.97 | 5.55 | 5.23
16 | CCN(CC)CCNC(=O)c1c(C)[nH]c(/C=C2\C(=O)Nc3ccc(-c4cccc(C#N)c4C)cc32)c1C [Example 205] |  |  | 6.24 | 5.33 | 5.37 | 5.55 | 5.28 | 5.35
17 | O=C1Nc2ccc(-c3csc(-c4ccncc4)n3)cc2/C1=C/c1cnc[nH]1 [Example 152] |  |  | 4.54 | 4.66 | 5.78 | 5.04 | 5.44 | 5.14
18 | CCN(CC)CCNC(=O)CCc1c(C)[nH]c(/C=C2\C(=O)Nc3ccc(-c4csc(-c5ccncc5)n4)cc32)c1C [Example 167] |  |  | 5.91 | 5.34 | 4.55 | 5.00 | 5.13 | 4.45
19 | CCN(CC)CCNC(=O)c1c(C)[nH]c(/C=C2\C(=O)Nc3cc(-c4ccc(O)cc4C)ccc32)c1C [Example 265] |  |  | 5.66 | 5.81 | 5.67 | 5.56 | 5.60 | 5.12
20 | O=C1Nc2ccc(-c3csc(-c4ccccc4)n3)cc2/C1=C/c1ncc[nH]1 [Example 150] |  |  | 5.54 | 5.60 | 5.12 | 4.76 | 5.84 | 5.64

The remaining lines, values ahead:

Row | inhibition at 1 µM (human RIOK2 protein) [%] | inhibition at 10 µM (human RIOK2 protein) [%] | pIC50 (ACHN CSC) | pIC50 (FaDu CSC) | pIC50 (FaDu) | pIC50 (A549) | pIC50 (ACHN) | pIC50 (A549 CSC) | Structure (SMILES)
21 | -2 | 25 |  |  |  |  |  |  | Cc1[nH]c(/C=C2\C(=O)Nc3ccc(-c4cnn(-c5ccccc5)c4)cc32)c(C)c1C(=O)NCCc1ncc[nH]1 [Example 98]
22 | 9 | 126 |  |  |  |  |  |  | Cc1[nH]c(/C=C2\C(=O)Nc3ccc(-c4cnn(-c5ccccc5)c4)cc32)c(C)c1C(=O)NC[C@H]1CCCN1 [Example 100]
23 | 4 | 99 |  |  |  |  |  |  | CCN(CC)CCNC(=O)c1c(C)[nH]c(/C=C2\C(=O)Nc3ccc(-c4cnn(-c5ccccc5Cl)c4)cc32)c1C [Example 71]
24 | -11 | 79 |  |  |  |  |  |  | Cc1[nH]c(/C=C2\C(=O)Nc3ccc(-c4cnn(-c5ccccc5)c4)cc32)c(C)c1C(=O)NCc1nc2ccccc2[nH]1 [Example 99]
25 | 42 | 82 |  |  |  |  |  |  | CCN(CC)CCNC(=O)c1c(C)[nH]c(/C=C2\C(=O)Nc3ccc(-c4cnn(-c5cccnc5)c4)cc32)c1C [Example 79]
26 | 17 | 140 |  |  |  |  |  |  | Cc1[nH]c(/C=C2\C(=O)Nc3ccc(-c4cnn(-c5ccccc5)c4)cc32)c(C)c1C(=O)NC1CCNCC1 [Example 94]
27 | 13 | 94 |  |  |  |  |  |  | Cc1[nH]c(/C=C2\C(=O)Nc3ccc(-c4cnn(-c5ccccc5)c4)cc32)c(C)c1C(=O)NC[C@@H]1CCCN1 [Example 101]
28 | 3 | 113 |  |  |  |  |  |  | CCN(CC)CCN(C)C(=O)c1c(C)[nH]c(/C=C2\C(=O)Nc3ccc(-c4cnn(-c5ccccc5)c4)cc32)c1C [Example 92]
29 | 6 | 107 |  |  |  |  |  |  | Cc1[nH]c(/C=C2\C(=O)Nc3ccc(-c4cnn(-c5ccccc5)c4)cc32)c(C)c1C(=O)NC1(CN2CCCCC2)CC1 [Example 97]
30 | -7 | 43 |  |  |  |  |  |  | CCOCCCNC(=O)c1c(C)[nH]c(/C=C2\C(=O)Nc3ccc(-c4cnn(-c5ccccc5)c4)cc32)c1C [Example 91]
31 | 22 | 134 |  |  |  |  |  |  | Cc1[nH]c(/C=C2\C(=O)Nc3ccc(-c4cnn(-c5ccccc5)c4)cc32)c(C)c1C(=O)NC1[C@H]2CNC[C@@H]12 (stereo partly shown) [Example 95]
32 | 26 | 71 |  |  |  |  |  |  | CCN(CC)CCNC(=O)c1c(C)[nH]c(/C=C2\C(=O)Nc3ccc(-c4cnn(-c5ccc(S(N)(=O)=O)cc5)c4)cc32)c1C [Example 74]
33 | 22 | 130 |  |  |  |  |  |  | Cc1[nH]c(/C=C2\C(=O)Nc3ccc(-c4cnn(-c5ccccc5)c4)cc32)c(C)c1C(=O)N[C@@H]1CCCNC1 [Example 89]
34 | -13 | 69 |  |  |  |  |  |  | Cc1[nH]c(/C=C2\C(=O)Nc3ccc(-c4cnn(-c5ccccc5)c4)cc32)c(C)c1C(=O)NC1CNCC(c2ccccc2)C1 (stereo not shown) [Example 96]
35 |  |  | 6.21 | 5.26 | 5.34 | 5.41 | 5.19 | 5.17 | CCN(CC)CCNC(=O)c1c(C)[nH]c(/C=C2\C(=O)Nc3ccc(-c4cnc5ccccc5c4)cc32)c1C [Example 204]
36 |  |  | 6.64 | 5.61 | 4.68 | 4.99 | 4.89 | 4.96 | Cc1[nH]c(/C=C2\C(=O)Nc3ccc(-c4ccc(-c5ccccc5)s4)cc32)c(C)c1C(=O)N1CCOCC1 [Example 11]
